From ChEMBL document CHEMBL5674877, “PRMT5: A novel regulator of Hepatitis B virus replication and an arginine methylase of HBV core” (PLoS One, 2017)

Legend:
Type in all cases: cell-based
[1] = target: Protein arginine N-methyltransferase 5 (Homo sapiens) (UniProt O14744); assay: Inhibition of PRMT5 in human HepG2_hNTCP cells transfected with constant amounts of HBc-HA assessed as reduction in symmetric arginine dimethylation of HBc at 5 nM incubated for 72 hrs by Western blot analysis relative to control; details: HepG2-hNTCP
[2] = target: Protein arginine N-methyltransferase 5 (Homo sapiens) (UniProt O14744); assay: Inhibition of PRMT5 in human HepG2_hNTCP cells transfected with constant amounts of HBc-HA assessed as reduction in symmetric arginine dimethylation of HBc at 0.5 to 500 nM incubated for 72 hrs by Western blot analysis; details: HepG2-hNTCP, dose 0.5-500 nM
[3] = target: Protein arginine N-methyltransferase 5 (Homo sapiens) (UniProt O14744); assay: Inhibition of PRMT5 in human HepG2_hNTCP cells transfected with constant amounts of HBc-HA assessed as decrease in intensity of methylation of SmD3 at 0.5 to 500 nM incubated for 72 hrs by Western blot analysis; details: HepG2-hNTCP, dose 0.5-500 nM
[4] = target: Protein arginine N-methyltransferase 5 (Homo sapiens) (UniProt O14744); assay: Inhibition of PRMT5 in human HepG2_hNTCP cells transfected with constant amounts of HBc-HA assessed as decrease in intensity of methylation of SmB/B' at 0.5 to 500 nM incubated for 72 hrs by Western blot analysis; details: HepG2-hNTCP, dose 0.5-500 nM

Protein arginine N-methyltransferase 5 (Homo sapiens), sequence (O14744 whole entry): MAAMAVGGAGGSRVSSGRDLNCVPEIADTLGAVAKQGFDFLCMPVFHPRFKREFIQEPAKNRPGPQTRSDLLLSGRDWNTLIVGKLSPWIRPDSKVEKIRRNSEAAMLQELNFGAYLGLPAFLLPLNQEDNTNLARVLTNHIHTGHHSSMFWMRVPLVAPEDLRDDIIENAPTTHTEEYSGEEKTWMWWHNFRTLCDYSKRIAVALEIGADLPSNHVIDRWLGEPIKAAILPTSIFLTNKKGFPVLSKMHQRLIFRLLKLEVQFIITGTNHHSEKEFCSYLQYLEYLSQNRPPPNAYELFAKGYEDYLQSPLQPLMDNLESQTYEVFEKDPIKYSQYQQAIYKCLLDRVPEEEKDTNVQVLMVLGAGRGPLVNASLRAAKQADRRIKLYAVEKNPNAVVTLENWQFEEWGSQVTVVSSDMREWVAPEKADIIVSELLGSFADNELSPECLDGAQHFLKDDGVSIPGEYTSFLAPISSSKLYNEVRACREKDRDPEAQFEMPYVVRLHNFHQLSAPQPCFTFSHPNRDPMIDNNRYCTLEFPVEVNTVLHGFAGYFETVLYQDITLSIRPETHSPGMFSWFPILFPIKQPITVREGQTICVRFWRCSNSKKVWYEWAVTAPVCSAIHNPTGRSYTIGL

SMILES: O=C(NC[C@H](O)CN1CCc2ccccc2C1)c1ccnc(NC2CCC2)c1
- fold change (FC) [1]: 0.5
- inhibition [2]: Dose-Dependent Effect
- inhibition [3]: Dose-Dependent Effect
- inhibition [4]: Dose-Dependent Effect
